Assay results published in patent US10570184B2, “GLP-1/glucagon receptor co-agonists for medical use” (Novo Nordisk A/S, priority 2014, dated 2020).
Starred links: 1 amine or outer side, 2 acyl side, 3 side chain; linkers in the order of their positions; H or OH if unused. Non-standard residues stand in square brackets, D forms with d. Residues, ends and D or L forms follow the SMILES beside them. Groups on a side chain read outwards from the residue. *: point of attachment. C18 diacid = O=C(O)CCCCCCCCCCCCCCCCC(=O)*; γGlu = O=C(O)[C@H](CCC(=O)[*:2])N[*:1]; Ac4c = NC1(C(=O)O)CCC1; AEEA = NCCOCCOCC(=O)O

Biological target: T1, human GLP-1 receptor (Homo sapiens, UniProt P43220)
T1 construct: expressed in transfected cells; host or cells: membranes of BHK cells (parent BHKTS13), clone FCW467-12A
T1 sequence (P43220 24-463): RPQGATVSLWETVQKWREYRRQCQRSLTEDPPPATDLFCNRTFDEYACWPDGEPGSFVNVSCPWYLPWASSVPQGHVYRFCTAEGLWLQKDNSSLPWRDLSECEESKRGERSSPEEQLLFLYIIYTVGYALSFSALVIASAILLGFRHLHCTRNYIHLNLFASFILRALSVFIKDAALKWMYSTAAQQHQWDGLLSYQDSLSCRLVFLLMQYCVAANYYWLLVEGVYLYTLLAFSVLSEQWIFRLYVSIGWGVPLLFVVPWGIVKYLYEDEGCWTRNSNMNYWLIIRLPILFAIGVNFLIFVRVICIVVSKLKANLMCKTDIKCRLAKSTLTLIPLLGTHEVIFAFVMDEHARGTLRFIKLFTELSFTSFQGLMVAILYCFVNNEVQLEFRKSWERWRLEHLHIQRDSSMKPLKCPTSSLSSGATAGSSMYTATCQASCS
Assay: Assay (I)(a) GLP-1 receptor activation, CRE luciferase reporter gene assay in BHK cells
Type: cell-based
Details: without presence of serum albumin; read-out: GLP-1R EC50 (pM) [Assay (I)(a)]
Summary of the method: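 Stable BHK clone expressing human GLP-1 receptor with CRE-driven firefly luciferase, 5×10EE3 cells/well in medium with 2% ovalbumin and 0.2% Pluronic F-68. Compounds at 1×10EE-13 to 1×10EE-6 M final, 3 h at 37° C.; luminescence read, EC50 (pM) from four-parameter fit.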

EC50: 4 pM
Structure (SMILES): CC[C@H](C)[C@H](NC(=O)[C@H](CC(C)C)NC(=O)[C@H](Cc1c[nH]c2ccccc12)NC(=O)[C@H](CCC(N)=O)NC(=O)[C@@H](NC(=O)[C@H](Cc1ccccc1)NC(=O)[C@H](CCC(=O)O)NC(=O)[C@H](CCCNC(=N)N)NC(=O)[C@H](C)NC(=O)[C@H](CCCNC(=N)N)NC(=O)[C@H](CCCNC(=N)N)NC(=O)[C@H](CO)NC(=O)[C@H](CCC(=O)O)NC(=O)[C@H](CC(C)C)NC(=O)[C@H](Cc1ccc(O)cc1)NC(=O)[C@H](CCCNC(=N)N)NC(=O)[C@H](CO)NC(=O)[C@H](CC(C)C)NC(=O)[C@H](CC(=O)O)NC(=O)[C@H](CO)NC(=O)[C@@H](NC(=O)[C@H](Cc1ccccc1)NC(=O)[C@@H](NC(=O)CNC(=O)[C@H](CCC(N)=O)NC(=O)C1(NC(=O)[C@@H](N)Cc2c[nH]cn2)CCC1)[C@@H](C)O)[C@@H](C)O)C(C)C)C(=O)N[C@@H](CCCCNC(=O)CC[C@H](NC(=O)CC[C@H](NC(=O)COCCOCCNC(=O)COCCOCCNC(=O)CC[C@H](NC(=O)CC[C@H](NC(=O)CCCCCCCCCCCCCCCCC(=O)O)C(=O)O)C(=O)O)C(=O)O)C(=O)O)C(=O)N[C@H](C(N)=O)[C@@H](C)O [Chem. 17, N^ε28-[(4S)-4-carboxy-4-[[(4S)-4-carboxy-4-[[2-[2 [2-[[2-[2-[2-[[(4S)-4-carboxy-4-[[(4S)-4-carboxy-4-(17-carboxyheptadecanoylamino)butanoyl]amino]butanoyl]amino]ethoxy]ethoxy]acetyl]amino]ethoxy]ethoxy]acetyl]amino]butanoyl]amino]butanoyl]-[Acb2,Leu10,Arg12,Glu15,Arg20,Glu21,Ile27,Lys28]-Glucagon amide] (H-H[Ac4c]QGTFTSDLSRYLESRRAREFVQWLIK([γGlu-γGlu-AEEA-AEEA-γGlu-γGlu-C18 diacid])T-NH2)
